# Test results taken from EP4603105A1, “PHARMACEUTICAL COMPOSITION CONTAINING CYCLIC COMPOUND HAVING SELECTIVE KRAS INHIBITORY EFFECT AGAINST HRAS AND NRAS” (CHUGAI SEIYAKU KABUSHIKI KAISHA, priority 2022, dated 2024).
# *1 amine or outer side, *2 acyl side, *3 side chain or, on linkers, in order; H or OH if unused. Where a SMILES comes first, the peptide text is derived from it. Bridges are numbered along the chain shown (N, C = ends). [ ]: non-standard residue; d: D form. The star is where a group is joined. hPhe(3-Cl-4-CF3) = N[C@@H](CCc1ccc(C(F)(F)F)c(Cl)c1)C(=O)O; X39 = O=C([C@H](Cc1ccc(C(F)(F)F)cc1)N(CC1CCC1)[*:1])[*:2]; NPrPhe(4-CF3) = CCCN[C@@H](Cc1ccc(C(F)(F)F)cc1)C(=O)O; NEtPhe(4-CF3) = CCN[C@@H](Cc1ccc(C(F)(F)F)cc1)C(=O)O; NMeGly(cPent) = CN[C@H](C(=O)O)C1CCCC1; Hyp = O=C(O)[C@@H]1C[C@@H](O)CN1; NMeD = CN[C@@H](CC(=O)O)C(=O)O; NMeL = CN[C@@H](CC(C)C)C(=O)O; Morpholide = C1CN(*)CCO1; NMeA = CN[C@@H](C)C(=O)O; Ac5c = NC1(C(=O)O)CCCC1; Aze = O=C(O)[C@@H]1CCN1; Ac4c = NC1(C(=O)O)CCC1; NEtG = CCNCC(=O)O; Sar = CNCC(=O)O
# Legend:
# [1] = test system: human lung cancer strain NCI-H441; type: cell-based
# Method in brief: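 Step one: dispense the test compound in serial DMSO dilutions. Step three: add the reagent and measure […].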
# [2] = molecular target: HRAS wild-type protein (Homo sapiens, UniProt P01112); experiment: Binding to HRAS by surface plasmon resonance (SPR), KD and KD ratio to KRAS
# Method in brief: (§1)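 Captured GDP-RAS (~100–300 RU) was exposed to increasing compound concentrations, 75 s per step, in running buffer with 10 µM GDP, 10 mM MgCl2 and 4% DMSO at pH 7.4.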
# [3] = molecular target: GDP-bound NRAS wild-type protein (Homo sapiens, UniProt P01111); experiment: Binding to NRAS by surface plasmon resonance (SPR), KD and KD ratio to KRAS
# Method in brief: as §1
# [4] = ratio of the KD value with respect to HRAS wild-type protein to the KD value with respect to KRAS
# [5] = ratio of the KD value with respect to GDP-bound NRAS wild-type protein to the KD value with respect to KRAS
# [6] = ratio of KD for HRAS wild-type protein to KD for KRAS
# [7] = ratio of KD for GDP-bound NRAS wild-type protein to KD for KRAS
# [8] = ratio of KD value for HRAS wild-type protein to KD value for KRAS (SPR)
# [9] = ratio of KD value for GDP-bound NRAS wild-type protein to KD value for KRAS (SPR)
# Sequence of HRAS wild-type protein (P01112 whole entry): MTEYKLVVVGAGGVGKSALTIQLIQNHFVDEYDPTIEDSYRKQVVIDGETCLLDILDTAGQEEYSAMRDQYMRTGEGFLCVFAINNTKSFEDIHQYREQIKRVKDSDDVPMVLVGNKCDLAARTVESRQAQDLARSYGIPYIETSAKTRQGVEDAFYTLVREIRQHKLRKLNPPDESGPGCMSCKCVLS
# Sequence of GDP-bound NRAS wild-type protein (P01111 whole entry): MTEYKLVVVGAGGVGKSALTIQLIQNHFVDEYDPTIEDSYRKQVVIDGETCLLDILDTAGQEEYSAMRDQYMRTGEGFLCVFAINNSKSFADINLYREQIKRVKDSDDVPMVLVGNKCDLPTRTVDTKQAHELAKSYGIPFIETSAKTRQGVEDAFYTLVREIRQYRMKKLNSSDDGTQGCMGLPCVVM
Compound,IC50 [1] [nM],"HRAS /KRAS [2, 4]","NRAS /KRAS [3, 5]","HRAS /KRAS [2, 6]","NRAS /KRAS [3, 7]","HRAS /KRAS [2, 8]","NRAS /KRAS [3, 9]"
CC[C@H](C)[C@@H]1NC(=O)[C@H](CCOC)N(C)C(=O)C[C@@H](C(=O)N(C)CC)N(C)C(=O)[C@H](C2CCCC2)N(C)C(=O)C2(CC(C)(C)C2)NC(=O)[C@@H]2C[C@H](C)CN2C(=O)[C@H](CCc2cc(F)c(C(F)(F)F)c(F)c2)NC(=O)CN(C)C(=O)[C@H](Cc2ccc(C(F)(F)F)cc2)N2CC/C=C\C[C@@H](C2=O)N(C)C(=O)CN(C)C1=O [PP1972],13.2,A (a compound having 10 or more and less than 20 is denoted as A),A (a compound having 10 or more and less than 20 is denoted as A),–,–,–,–
CCCN1C(=O)CN(C)C(=O)CN(CC)C(=O)[C@H]([C@@H](C)CC)NC(=O)[C@H](CC(C)C)N(C)C(=O)C[C@@H](C(=O)N(C)C)NC(=O)[C@H](C2CCCC2)N(C)C(=O)C2(CCC2)NC(=O)[C@@H]2CCCN2C(=O)[C@H](CCc2ccc(C(F)(F)F)c(Cl)c2)NC(=O)CN(C)C(=O)[C@@H]1Cc1ccc(C(F)(F)F)cc1 [PP0368] ([NMeL]I[NEtG][Sar][NPrPhe(4-CF3)][Sar][hPhe(3-Cl-4-CF3)]P[Ac4c][NMeGly(cPent)]D-NMe2; lactam N-11),115,–,–,B (a compound having 3 or more and less than 10 is denoted as B),B (a compound having 3 or more and less than 10 is denoted as B),–,–
CCO[C@@H]1C[C@H]2C(=O)NC3(CCCC3)C(=O)N(C)[C@@H](C3CCCC3)C(=O)N(C)[C@H](C(=O)N3CCOCC3)CC(=O)N(C)[C@@H](CC(C)C)C(=O)N[C@@H]([C@@H](C)CC)C(=O)N(C)CC(=O)N(C)[C@H]3CC(C)=CCN(C3=O)[C@@H](Cc3ccc(C(F)(F)F)cc3)C(=O)N(C)CC(=O)N[C@@H](CCc3cc(F)c(C(F)(F)F)c(F)c3)C(=O)N2C1 [PP1038],188,–,–,C (A compound having a KD ratio of 0.1 or more and less than 3 is denoted as C),C (A compound having a KD ratio of 0.1 or more and less than 3 is denoted as C),–,–
CCCN1C(=O)[C@@H]2CCN2C(=O)[C@H](C)N(C)C(=O)[C@H]([C@@H](C)CC)NC(=O)[C@H](CC(C)C)N(C)C(=O)C[C@@H](C(=O)N2CCOCC2)N(C)C(=O)[C@H](C2CCCC2)N(C)C(=O)C2(CCCC2)NC(=O)[C@@H]2CCCN2C(=O)[C@H](CCc2ccc(C(F)(F)F)c(Cl)c2)NC(=O)CN(C)C(=O)[C@@H]1Cc1ccc(C(F)(F)F)cc1 [PP0053] ([NMeL]I[NMeA][Aze][NPrPhe(4-CF3)][Sar][hPhe(3-Cl-4-CF3)]P[Ac5c][NMeGly(cPent)][NMeD]-Morpholide; lactam N-11),4.6,–,–,C (A compound having a KD ratio of 0.1 or more and less than 3 is denoted as C),C (A compound having a KD ratio of 0.1 or more and less than 3 is denoted as C),–,–
CCCN1C(=O)CN(C)C(=O)CN(C)C(=O)[C@H]([C@@H](C)CC)NC(=O)[C@H](CC(C)C)N(C)C(=O)C[C@@H](C(=O)N2CCOCC2)N(C)C(=O)[C@H](C2CCCC2)N(C)C(=O)C2(CCC2)NC(=O)[C@@H]2CCCN2C(=O)[C@H](CCc2ccc(C(F)(F)F)c(Cl)c2)NC(=O)CN(CC)C(=O)[C@@H]1Cc1ccc(C(F)(F)F)cc1 [PP1950] ([NMeL]I[Sar][Sar][NPrPhe(4-CF3)][NEtG][hPhe(3-Cl-4-CF3)]P[Ac4c][NMeGly(cPent)][NMeD]-Morpholide; lactam N-11),32.5,C (A compound having a KD ratio of 0.1 or more and less than 3 is denoted as C),B (a compound having 3 or more and less than 10 is denoted as B),–,–,–,–
CCO[C@@H]1C[C@H]2C(=O)NC3(CCC3)C(=O)N(C)[C@@H](C3CCCC3)C(=O)N3CCC[C@@H]3CC(=O)N(C)[C@@H](CC3CC3)C(=O)N[C@@H]([C@@H](C)CC)C(=O)N(C)CC(=O)N(C)[C@H]3C/C=C\CCN(C3=O)[C@@H](Cc3ccc(C(F)(F)F)cc3)C(=O)N(C)CC(=O)N[C@@H](CCc3cc(F)c(C(F)(F)F)c(F)c3)C(=O)N2C1 [PP1613],14.7,–,–,–,–,B (a compound having 3 or more and less than 10 is denoted as B),B (a compound having 3 or more and less than 10 is denoted as B)
CCC[C@H]1C(=O)N[C@@H]([C@@H](C)CC)C(=O)N(C2CC2)CC(=O)N(C)[C@H]2C/C=C\CCN(C2=O)[C@@H](Cc2ccc(C)cc2)C(=O)N(C)CC(=O)N[C@@H](CCc2cc(Cl)c(C(F)F)c(Cl)c2)C(=O)N2C[C@H](OCC)C[C@H]2C(=O)NC2(CC(C)(C)C2)C(=O)N(C)[C@@H](C2CCCC2)C(=O)N(C)[C@H](C(=O)N(C)C)CC(=O)N1C [PP2877],96,–,–,A (a compound having 10 or more and less than 20 is denoted as A),A (a compound having 10 or more and less than 20 is denoted as A),–,–
CCCN1C(=O)CN(C)C(=O)CN(CC)C(=O)[C@H]([C@@H](C)CC)NC(=O)[C@H](CC(C)C)N(C)C(=O)C[C@@H](C(=O)N(C)C)N(C)C(=O)[C@H](C2CCCC2)N(C)C(=O)C2(CCC2)NC(=O)[C@@H]2C[C@@H](OCC)CN2C(=O)[C@H](CCc2ccc(C(F)(F)F)c(Cl)c2)NC(=O)CN(C)C(=O)[C@@H]1Cc1ccc(C(F)(F)F)cc1 [PP0428] ([NMeL]I[NEtG][Sar][NPrPhe(4-CF3)][Sar][hPhe(3-Cl-4-CF3)][Hyp](Et)[Ac4c][NMeGly(cPent)][NMeD]-NMe2; lactam N-11),4.6,C (A compound having a KD ratio of 0.1 or more and less than 3 is denoted as C),B (a compound having 3 or more and less than 10 is denoted as B),–,–,–,–

# Continued, in another order:
IC50 [1] [nM],Compound,"HRAS /KRAS [2, 4]","NRAS /KRAS [3, 5]","HRAS /KRAS [2, 6]","NRAS /KRAS [3, 7]","HRAS /KRAS [2, 8]","NRAS /KRAS [3, 9]"
6.6,CCO[C@@H]1C[C@H]2C(=O)NC3(CC(C)(C)C3)C(=O)N(C)[C@@H](C3CCCC3)C(=O)N(C)[C@H](C(=O)N(C)C)CC(=O)N(C)[C@H]3CCCCCCc4ccc(cc4)C[C@@H](C(=O)N(C)CC(=O)N[C@@H](CCc4ccc(Cl)c(Cl)c4)C(=O)N2C1)N1CC/C=C\C[C@@H](C1=O)N(C)C(=O)CN(C)C(=O)[C@H]([C@@H](C)CC)NC3=O [PP3071],–,–,B (a compound having 3 or more and less than 10 is denoted as B),A (a compound having 10 or more and less than 20 is denoted as A),–,–
21.7,CC[C@H](C)[C@@H]1NC(=O)[C@H](CC(C)C)N(C)C(=O)C[C@@H](C(=O)N2CCOCC2)N(C)C(=O)[C@H](C2CCCC2)N(C)C(=O)C2(CCCC2)NC(=O)[C@@H]2CCCN2C(=O)[C@H](CCc2ccc(C(F)(F)F)c(Cl)c2)NC(=O)CN(C)C(=O)[C@H](Cc2ccc(C(F)(F)F)cc2)N(CC2CCC2)C(=O)[C@@H]2CCN2C(=O)[C@H](C)N(C)C1=O [PP0109] ([NMeL]I[NMeA][Aze][X39][Sar][hPhe(3-Cl-4-CF3)]P[Ac5c][NMeGly(cPent)][NMeD]-Morpholide; lactam N-11),–,–,B (a compound having 3 or more and less than 10 is denoted as B),C (A compound having a KD ratio of 0.1 or more and less than 3 is denoted as C),–,–
2.1,CC[C@H](C)[C@@H]1NC(=O)[C@H](CC(C)C)N(C)C(=O)C[C@@H](C(=O)N2CCOCC2)N(C)C(=O)[C@H](C2CCCC2)N(C)C(=O)C2(CCCC2)NC(=O)[C@@H]2CCCN2C(=O)[C@H](CCc2ccc(C(F)(F)F)c(Cl)c2)NC(=O)CN(C)C(=O)[C@H](Cc2ccc(C(F)(F)F)cc2)N(CC)C(=O)[C@@H]2CCN2C(=O)[C@H](C)N(C)C1=O [PP0002] ([NMeL]I[NMeA][Aze][NEtPhe(4-CF3)][Sar][hPhe(3-Cl-4-CF3)]P[Ac5c][NMeGly(cPent)][NMeD]-Morpholide; lactam N-11),–,–,C (A compound having a KD ratio of 0.1 or more and less than 3 is denoted as C),C (A compound having a KD ratio of 0.1 or more and less than 3 is denoted as C),–,–
2.8,CCC[C@H]1C(=O)N[C@@H]([C@@H](C)CC)C(=O)N(C)CC(=O)N(C)[C@H]2C/C=C\CCN(C2=O)[C@@H](Cc2ccc(C(F)(F)F)cc2)C(=O)N(C)CC(=O)N[C@@H](CCc2cc(F)c(C(F)(F)F)c(F)c2)C(=O)N2C[C@H](OCC)C[C@H]2C(=O)NC2(CC(C)(C)C2)C(=O)N(C)[C@@H](C2CCCC2)C(=O)N(C)[C@H](C(=O)N(C)CC)CC(=O)N1C [PP1646],–,–,–,–,A (a compound having 10 or more and less than 20 is denoted as A),A (a compound having 10 or more and less than 20 is denoted as A)
5.1,CCCOC[C@H]1C(=O)N[C@@H]([C@@H](C)CC)C(=O)N(C)CC(=O)N(C)[C@H]2C/C=C\CCN(C2=O)[C@@H](Cc2ccc(C(F)(F)F)cc2)C(=O)N(C)CC(=O)N[C@@H](CCc2cc(F)c(C(F)(F)F)c(F)c2)C(=O)N2C[C@H](F)C[C@H]2C(=O)NC2(CC(C)(C)C2)C(=O)N(C)[C@@H](C2CCCC2)C(=O)N(C)[C@H](C(=O)N(C)CCC)CC(=O)N1C [PP1698],–,–,–,–,A (a compound having 10 or more and less than 20 is denoted as A),A (a compound having 10 or more and less than 20 is denoted as A)
17.9,CCC[C@H]1C(=O)N[C@@H]([C@@H](C)CC)C(=O)N(CCC)CC(=O)N(C)[C@H]2C/C=C\CCN(C2=O)[C@@H](Cc2ccc(C(F)(F)F)cc2)C(=O)N(C)CC(=O)N[C@@H](CCc2cc(F)c(C(F)(F)F)c(F)c2)C(=O)N2C[C@H](OCC)C[C@H]2C(=O)NC2(CCC2)C(=O)N(C)[C@@H](C2CCCC2)C(=O)N(C)[C@H](C(=O)N(C)C)CC(=O)N1C [PP1767],–,–,–,–,B (a compound having 3 or more and less than 10 is denoted as B),A (a compound having 10 or more and less than 20 is denoted as A)
